Laboratory results: patent US4348393A, “N-Aryl oxazolidinones, oxazolidinethiones, pyrrolidinones, pyrrolidines and thiazolidinones” (Delalande S.A., priority 1978, dated 1982)
Read-outs that look alike come from different tables or passages of the source.

How the values were obtained:
[1] = test system: ptosis observed one hour after reserpine; experiment: Test B: antagonism of reserpine-induced ptosis in mice; type: in vivo; details: Mus musculus, 1 h, po, antagonism of ptosis one hour after reserpine 2 mg/kg intravenous, read-out: Test B ED 50
Description: Test B: Antagonism with respect to the ptosis observed one hour after an intravenous injection (2 mg/kg) of reserpine given to mice, following the protocol described by C.

[2] = test system: generalized trembling caused by dl-5-hydroxytryptophane; experiment: Test A: potentiation in mice of generalized trembling caused by dl-5-hydroxytryptophane; type: in vivo; details: Mus musculus, po, read-out: Test A ED 50
Description: Test A: Potentiation in mice of generalized trembling caused by an interperitoneal injection (200 mg/kg) of dl-5-hydroxytryptophane, following the protocol described by C. GOURET and G. RAYNAUD in J. Pharmacol. (Paris), (1974), 5, 231.

[3] = mice, potentiation of trembling by dl-5-hydroxytryptophane 200 mg/kg interperitoneal

Row | Compound | ED50 [1] [mg/kg] | ED50 [2, 3] [mg/kg] | ED50 [2] [mg/kg]
1 | O=C1OC(COC2CCCCC2)CN1c1ccc(OCC2CCCC2)cc1 (stereo not drawn) [compound 51] | 50 | 27 | 
2 | CC(C)OCC1CN(c2ccc(OCCC#N)cc2)C(=O)O1 (stereo not drawn) [compound 53] | 5.8 | 5 | 
3 | N#CCCOc1ccc(N2CC(COC3CCCCC3)OC2=O)cc1 (stereo not drawn) [compound 54] | 12.5 | 14 | 
4 | COCC1CN(c2ccc(OCC3CCCCC3)cc2)C(=O)O1 (stereo not drawn) [compound 55] | 1.1 | 0.6 | 
5 | COCC1CN(c2ccc(OCc3ccccc3)cc2)C(=O)O1 (stereo not drawn) [compound 57] | 9 | 7.8 | 
6 | CC(C)OCC1CN(c2ccc(OCc3ccccc3)cc2)C(=O)O1 (stereo not drawn) [compound 58] | 8.8 | 50 | 
7 | COCC1CN(c2ccc(OCc3cccc(Cl)c3)cc2)C(=O)O1 (stereo not drawn) [compound 59] | 3.1 | 3.4 | 
8 | CC(C)OCC1CN(c2ccc(OCc3cccc([N+](=O)[O-])c3)cc2)C(=O)O1 (stereo not drawn) [compound 62] | 2.4 | 3.6 | 
9 | O=C1OC(COC2CCCCC2)CN1c1ccc(OCc2cccc([N+](=O)[O-])c2)cc1 (stereo not drawn) [compound 63] | 16.5 | 9.4 | 
10 | COCC1CN(c2ccc(OCc3cccc(C#N)c3)cc2)C(=O)O1 (stereo not drawn) [compound 65] | 0.75 | 0.28 | 
11 | COCC1CN(c2ccc(OCc3cccc(C(F)(F)F)c3)cc2)C(=O)O1 (stereo not drawn) [compound 66] | 6 | 4.7 | 
12 | COCC1CN(c2ccc(OCc3cccc(F)c3)cc2)C(=O)O1 (stereo not drawn) [compound 67] | 5.6 | 4.4 | 
13 | COCC1CN(c2ccc(OCc3ccc(Cl)cc3)cc2)C(=O)O1 (stereo not drawn) [compound 68] | 6.2 | 5 | 
14 | CCOCC1CN(c2ccc(OCc3cccc([N+](=O)[O-])c3)cc2)C(=O)O1 (stereo not drawn) [compound 69] | 0.2 | 0.5 | 
15 | CCCOCC1CN(c2ccc(OCc3cccc([N+](=O)[O-])c3)cc2)C(=O)O1 (stereo not drawn) [compound 70] | 0.6 | 0.8 | 
16 | C=CCOCC1CN(c2ccc(OCc3cccc([N+](=O)[O-])c3)cc2)C(=O)O1 (stereo not drawn) [compound 71] | 0.8 | 1 | 
17 | C#CCOCC1CN(c2ccc(OCc3cccc([N+](=O)[O-])c3)cc2)C(=O)O1 (stereo not drawn) [compound 72] | 1 | 0.8 | 
18 | COCOCC1CN(c2ccc(OCc3cccc([N+](=O)[O-])c3)cc2)C(=O)O1 (stereo not drawn) [compound 73] | 0.8 | 0.6 | 
19 | CCCCOc1ccc(N2CC(CNC)OC2=O)cc1 (stereo not drawn) [compound 74] | 6.2 | 4 | 
20 | NCC1CN(c2ccc(OCC3CCCC3)cc2)C(=O)O1 (stereo not drawn) [compound 76] | 6.2 | 2.1 | 
21 | CNCC1CN(c2ccc(OCCC(C)C)cc2)C(=O)O1 (stereo not drawn) [compound 79] | 2 | 6.2 | 
22 | NCC1CN(c2ccc(OCc3ccccc3)cc2)C(=O)O1 (stereo not drawn) [compound 80] | 25 | 20 | 
23 | NCC1CN(c2ccc(OCc3cccc(Cl)c3)cc2)C(=O)O1 (stereo not drawn) [compound 82] | 12 | 9.6 | 
24 | CNCC1CN(c2ccc(OCc3cccc(Cl)c3)cc2)C(=O)O1 (stereo not drawn) [compound 83] | 6.2 | 12.5 | 

Row | Compound | ED50 [1] [mg/kg] | ED50 [2, 3] [mg/kg] | ED50 [2] [mg/kg]
25 | NCC1CN(c2ccc(OCc3cccc([N+](=O)[O-])c3)cc2)C(=O)O1 (stereo not drawn) [compound 84] | 1.3 | 3 | 
26 | CN(C)CC1CN(c2ccc(OCc3cccc([N+](=O)[O-])c3)cc2)C(=O)O1 (stereo not drawn) [compound 86] | 4.8 |  | 4.5
27 | CCOc1ccc(N2CC(CO)OC2=S)cc1 (stereo not drawn) [compound 87, para ethoxyphenyl-3 hydroxymethyl-5 oxazolidine thione-2] | 44 | 29 | 
28 | CCCOc1ccc(N2CC(CO)OC2=S)cc1 (stereo not drawn) [compound 88] | 33 | 12.5 | 
29 | CCCCOc1ccc(N2CC(CO)OC2=S)cc1 (stereo not drawn) [compound 89] | 12.5 | 12.5 | 
30 | OCC1CN(c2ccc(OCC3CCCCC3)cc2)C(=S)O1 (stereo not drawn) [compound 90] | 8 | 3 | 
31 | N#CCOc1ccc(N2CC(CO)OC2=S)cc1 (stereo not drawn) [compound 92] | 50 | 30 | 
32 | OCC1CN(c2ccc(OCc3cccc(Cl)c3)cc2)C(=S)O1 (stereo not drawn) [compound 93] | 6 | 9 | 
33 | OCC1CN(c2ccc(OCc3ccc(Cl)cc3)cc2)C(=S)O1 (stereo not drawn) [compound 95] | 35 | 50 | 
34 | OCC1CN(c2ccc(OCc3ccc(F)cc3)cc2)C(=S)O1 (stereo not drawn) [compound 96] | 3.6 | 4.7 | 
35 | N#Cc1cccc(COc2ccc(N3CC(CO)OC3=S)cc2)c1 (stereo not drawn) [compound 97] | 3.2 | 3.9 | 
36 | OCC1CN(c2ccc(OCc3cccc(C(F)(F)F)c3)cc2)C(=S)O1 (stereo not drawn) [compound 98] | 12.5 | 12.5 | 
37 | CC(C)C(=O)OCC1CN(c2ccc(OCC3CCCCC3)cc2)C(=O)O1 (stereo not drawn) [compound 103] | 6 | 5 | 
38 | CCCCOc1ccc(N2CC(COCC)OC2=O)cc1 (stereo not drawn) [compound 109] | 1 | 10 | 
39 | COCC1CN(c2ccc(OCCCCC#N)cc2)C(=O)O1 (stereo not drawn) [compound 112] | 0.15 | 0.1 | 
40 | O=[N+]([O-])c1cc(Cl)cc(COc2ccc(N3CC(CO)OC3=S)cc2)c1 (stereo not drawn) [compound 113] | 3.5 | 3.2 | 
41 | CC(=O)OCC1CN(c2ccc(OCC3CCCCC3)cc2)C(=S)O1 (stereo not drawn) [compound 115] | 4.8 | 3.8 | 
42 | COCC1CN(c2ccc(OCc3cccc(C#N)c3)cc2)C(=S)O1 (stereo not drawn) [compound 116] | 0.95 | 1.6 | 
43 | CC(=O)OCC1CN(c2ccc(OCc3cccc([N+](=O)[O-])c3)cc2)C(=S)O1 (stereo not drawn) [compound 117] | 1.5 | 1.2 | 
44 | O=C(OCC1CN(c2ccc(OCC3CCCCC3)cc2)C(=O)O1)C1CCCCC1 (stereo not drawn) [compound 121] | 8 | 11 | 
45 | CCCCCCCCC(=O)OCC1CN(c2ccc(OCC3CCCCC3)cc2)C(=O)O1 (stereo not drawn) [compound 122] | 6.2 | 6.8 | 
46 | CC(C)CCOc1ccc(N2CC(COC(=O)C(C)(C)C)OC2=O)cc1 (stereo not drawn) [compound 125] | 3.5 | 5 | 
47 | CCCCCCCCC(=O)OCC1CN(c2ccc(OCCC(C)C)cc2)C(=O)O1 (stereo not drawn) [compound 126] | 1.8 | 4.4 | 
48 | CC(C)CCOc1ccc(N2CC(COC(=O)C(C)C)OC2=O)cc1 (stereo not drawn) [compound 127] | 4.3 | 5 | 

Row | Compound | ED50 [1] [mg/kg] | ED50 [2, 3] [mg/kg] | ED50 [2] [mg/kg]
49 | CCCCC(=O)OCC1CN(c2ccc(OCCC(C)C)cc2)C(=O)O1 (stereo not drawn) [compound 128] | 4.8 | 7.2 | 
50 | CC(C)CCOc1ccc(N2CC(COC(=O)C3CCCCC3)OC2=O)cc1 (stereo not drawn) [compound 129] | 12 | 7.5 | 
51 | CC(=O)OCC1CN(c2ccc(OCc3cccc(F)c3)cc2)C(=O)O1 (stereo not drawn) [compound 130] | 9.6 | 6.2 | 
52 | CCCCCCCCC(=O)OCC1CN(c2ccc(OCc3cccc(F)c3)cc2)C(=O)O1 (stereo not drawn) [compound 131] | 31 | 12 | 
53 | CCCCCCCCC(=O)OCC1CN(c2ccc(OCc3cccc(C#N)c3)cc2)C(=O)O1 (stereo not drawn) [compound 133] | 5.2 | 6 | 
54 | CCCCOc1ccc(N2CC(COCCC)OC2=O)cc1 (stereo not drawn) [compound 142] | 17.5 | 18 | 
55 | CCCOCC1CN(c2ccc(OCC3CCCC3)cc2)C(=O)O1 (stereo not drawn) [compound 143] | 12 | 12.5 | 
56 | COCC1CN(c2ccc(OCC3CCOCC3)cc2)C(=O)O1 (stereo not drawn) [compound 144] | 1.1 | 2.2 | 
57 | CCCOCC1CN(c2ccc(OCCC#N)cc2)C(=O)O1 (stereo not drawn) [compound 145] | 12 | 8.5 | 
58 | CCOCC1CN(c2ccc(OCC3CCCC3)cc2)C(=O)O1 (stereo not drawn) [compound 146] | 12.5 | 5 | 
59 | CCOCC1CN(c2ccc(OCCC#N)cc2)C(=O)O1 (stereo not drawn) [compound 147] | 2.6 | 1.5 | 
60 | COCC1CN(c2ccc(OCC3CCCCCC3)cc2)C(=O)O1 (stereo not drawn) [compound 150] | 0.5 | 0.7 | 
61 | COCC1CN(c2ccc(OCC(C)=O)cc2)C(=O)O1 (stereo not drawn) [compound 151] | 5 | 5.2 | 
62 | CCCOCC1CN(c2ccc(OCc3ccccc3)cc2)C(=O)O1 (stereo not drawn) [compound 152] | 15.5 | 18 | 
63 | CCCOCC1CN(c2ccc(OCc3cccc(Cl)c3)cc2)C(=O)O1 (stereo not drawn) [compound 153] | 4 | 3.8 | 
64 | CCOCC1CN(c2ccc(OCc3ccccc3)cc2)C(=O)O1 (stereo not drawn) [compound 154] | 17.5 | 19 | 
65 | CCOCC1CN(c2ccc(OCc3cccc(Cl)c3)cc2)C(=O)O1 (stereo not drawn) [compound 155] | 3 | 9.6 | 
66 | COCC1CN(c2ccc(OCc3cc(Cl)cc([N+](=O)[O-])c3)cc2)C(=O)O1 (stereo not drawn) [compound 156] | 0.3 | 0.47 | 
67 | CC(C)COCC1CN(c2ccc(OCc3cccc([N+](=O)[O-])c3)cc2)C(=O)O1 (stereo not drawn) [compound 157] | 6.2 | 4.7 | 
68 | CC(C)CCOCC1CN(c2ccc(OCc3cccc([N+](=O)[O-])c3)cc2)C(=O)O1 (stereo not drawn) [compound 158] | 6 | 6 | 
69 | COCC1CN(c2ccc(OCc3ccc(C#N)cc3)cc2)C(=O)O1 (stereo not drawn) [compound 159] | 4.8 | 5.2 | 
70 | COCC1CN(c2ccc(OCc3ccc(F)c(C#N)c3)cc2)C(=O)O1 (stereo not drawn) [compound 162] | 1.55 | 0.54 | 
71 | COCC1CN(c2ccc(OCc3ccc(F)c(Cl)c3)cc2)C(=O)O1 (stereo not drawn) [compound 163] | 8 | 1.15 | 
72 | COCC1CN(c2ccc(OCc3ccc(Cl)c(Cl)c3)cc2)C(=O)O1 (stereo not drawn) [compound 164] | 3.4 | 3.4 | 
